Common to all, as to type: cell-based
The nature of assay [1]: Cell proliferation, Neutral Red detection method. As to conditions: compared to the untreated control after 48 hours of treatment.
Text: (§1) In another aspect, this invention also refers to an in vitro method of assessing skin repair, that is suitable for studying a variety of active ingredients, comprised of the following steps: • Step 1—Initial Indication: quantification of the FGF-2 growth factor through the flow cytometry technique; • Step 2—Inflammation: quantification of inflammatory cytokines (IL-1B, IL-6, IL-8, IL-10, IL-12 p70) through the flow cytometry technique; • Step 3—Cell proliferation and migration: • Cell proliferation through the Neutral Red detection method; • Cell migration through the ECIS and Scratch method; • Step 4—Remodeling and Resolution • Quantification of matrix metalloproteinase MMP-13 through the Enzyme-Linked Immunosorbent Assay (ELISA) technique; • Determination of collagenase/gelatinase enzyme activity (MMP-1 and MMP-3) and elastase (MMP-1 2) through the enzyme inhibition assay.
(§2) All the tests were conducted in triplicate, with experiments repeated at least twice, using negative control groups (no stimulation with active ingredients) and positive control groups (stimulated with molecules modulating the marker to be assayed). […]
as §1, with “As a result,” for “In another aspect,”, “project encompassed the following” for “invention also refers to an”, “assays:” for “method of assessing skin repair, that is suitable for studying a variety of active ingredients, comprised of the following steps:”, “FGF2” for “FGF-2”, “assay. […]” for “assay.”

The next assay deals with MMP-13. In words: Quantification of MMP-13 by ELISA. The conditions noted are these: compared to the untreated control.
Text: as §1, §2
as §1, with “As a result,” for “In another aspect,”, “project encompassed the following” for “invention also refers to an”, “assays:” for “method of assessing skin repair, that is suitable for studying a variety of active ingredients, comprised of the following steps:”, “FGF2” for “FGF-2”
(In general: An ELISA detects its analyte on a solid surface through an enzyme-linked reagent.)

A further assay concerns IL-10. Nature of the assay: Quantification of inflammatory cytokines by flow cytometry (IL-10). The conditions noted are these: in terms of negative control.
Text: as §1, §2

For the next assay, the system named is FGF-2. In words: Quantification of FGF-2 growth factor by flow cytometry. The conditions noted are these: in comparison to the negative control.
Text: as §1, §2
(Flow cytometry measures light scatter and fluorescence of single cells or particles in a stream.)

Another assay concerns IL-8. In words: Quantification of inflammatory cytokines by flow cytometry (IL-8). As to conditions: in terms of negative control.
Text: as §1, §2

In the case of `NC(=O)NC1NC(=O)NC1=O` (stereo not drawn) [allantoin], the “increase in cell proliferation (in words)” value (“increase … (in words)” for short) in assay [1] is recorded as “did not present significant increases”. The “MMP-13 quantification, increase” value with MMP-13 is on record as “threefold increases”.

For madecassoside, the “increase … (in words)” value in assay [1] is listed as “did not present significant increases”. This molecule had an IL-10 increase with IL-10 of 2.3 times. Besides, the FGF-2 increase result in the assay on FGF-2 was “up to 115 times”. Moreover, the IL-8 increase result in the assay with IL-8 is on record as “twofold increase”. For the same molecule, the “MMP-13 quantification, increase” value with MMP-13 is “threefold increases”.

B1: papain (protein, UniProt P00784 134-345, looked up)
Papain: IPEYVDWRQKGAVTPVKNQGSCGSCWAFSAVVTIEGIIKIRTGNLNEYSEQELLDCDRRSYGCNGGYPWSALQLVAQYGIHYRNTYPYEGVQRYCRSREKGPYAAKTDGVRQVQPYNEGALLYSIANQPVSVVLEAAGKDFQLYRGGIFVGPCGNKVDHAVAAVGYGPNYILIKNSWGTGWGENGYIRIKRGTGNSYGVCGLYTSSFYPVKN
notes: standard (enzyme)
As for B1, in assay [1], the “increase … (in words)” value is on record as “did not present significant increases”. The “MMP-13 quantification, increase” value in the assay with MMP-13 was “threefold increases”.

For the origin of these results see US20190282492A1, “COSMETIC COMPOSITIONS FOR SKIN REPARATION” (Natura Cosméticos S.A., priority 2016, published 2019).
